Reference: paper PMC9061822, “A novel SRSF3 inhibitor, SFI003, exerts anticancer activity against colorectal cancer by modulating the SRSF3/DHCR24/ROS axis” (Cell Death Discovery, 2022)

Assays:
[1] = test system: HCT-116 and SW480 cells; experiment: WB of EMT and apoptosis markers with ROS scavengers; type: cell-based, Human; settings: 20 μM SFI003 with 5 mM NAC or 100 μM Trolox, 72 h
Method: After cell lysates were prepared, protein concentrations were determined by a BCA assay (TaKaRa, Kusatsu, Japan). Equal amounts of protein were separated by SDS–PAGE and transferred to polyvinylidene difluoride membranes. After normalization, the blots were probed with appropriate antibodies, as described previously.

[2] = test system: ROS; experiment: Detection of ROS (DCFH-DA) in HCT-116 and SW480 cells; type: cell-based, Human; settings: 20 μM SFI003 with 5 mM NAC or 100 μM Trolox, 72 h
Method: Following treatment with SFI003 or siRNA, the cells were washed with PBS and incubated with DCFH-DA for 20 min at 37 °C. After washing three times, the cells were collected and measured at 488 nm excitation and 525 nm emission by a microplate reader (Tecan, Switzerland) according to the manufacturer’s instructions (Beyotime, Shanghai, China). The protein concentrations were determined by using a BCA assay (TaKaRa, Kusatsu, Japan).

[3] = test system: HCT-116 xenografts; experiment: HCT-116 xenografts in SCID mice; type: in vivo; settings: HCT-116 xenografts, 100 mg/kg orally, two weeks
Method: To explore the effect of SFI003 on the growth of CRC, approximately 3 × 10^6 HCT-116 cells or 8 × 10^6 SW480 cells were collected and mixed with Matrigel (Corning, NY, USA) at a 1:1 ratio by volume and then injected into the lower back region of mice. When tumors were palpable, mice were randomly divided into four groups. One group received vehicle as a control, while the other three groups were orally administered SFI003 at a dosage of 100 or 200 mg/kg or capecitabine at a dosage of 100 mg/kg for two continuous weeks. The tumor sizes and mouse body weights were monitored every other day. At the end of the experiment, tumors and blood samples were collected for further studies. The tumor size was evaluated according to Eq.: tumor size (mm^3) = (length × width^2) × 0.5.

[4] = biological target: T1, SRSF3 (Homo sapiens, UniProt P84103); experiment: Biological experimental assays of screened compounds against SRSF3; settings: screening hit among 22 selected compounds
T1 sequence (P84103 1-164): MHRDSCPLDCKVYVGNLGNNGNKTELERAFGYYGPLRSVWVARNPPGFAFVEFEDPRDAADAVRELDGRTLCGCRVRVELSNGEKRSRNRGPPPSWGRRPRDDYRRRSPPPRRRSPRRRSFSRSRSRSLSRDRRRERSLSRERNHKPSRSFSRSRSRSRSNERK

[5] = test system: SW480 cells; experiment: MTT assay in SW480 cells; type: cell-based, Human; settings: Homo sapiens; SW480 cells, 72 h
Method: (§1) Human CRC cell lines were purchased from the American Type Culture Collection (VA, USA). HCT-116 cells were cultured in DMEM (HyClone, Utah, USA) containing 10% fetal bovine serum (FBS; Gibco, NY, USA). SW480 cells were cultured in RPMI 1640 medium (HyClone, Utah, USA) containing 10% FBS. All cells were cultured in an incubator (Thermo, CA, USA) at a constant temperature of 37 °C and 5% CO2. N-Acetylcysteine (NAC), Trolox, MLN4924, 5-Fu, and capecitabine were purchased from MedChemExpress LLC (Shanghai, China). MG132 was purchased from Santa Cruz Biotech (CA, USA). Chloroquine (CHQ) was purchased from Sigma (CA, USA). Rapamycin was purchased from Beyotime (Shanghai, China). Primary antibodies against SRSF3 and E-Cadherin were purchased from Abcam (Cambridge, UK). Primary antibodies against N-Cadherin, Caspase 3, DHCR24, CAT, Akt and phospho-Akt (Ser473) were purchased from Cell Signaling Technology (MA, USA). Primary antibodies against β-actin, mTOR, and phospho-mTOR ([…]) were purchased from Beyotime (Shanghai, China). Primary antibody against Vimentin was purchased from Proteintech (Wuhan, China). Primary antibody against Bcl-2 was purchased from Santa Cruz Biotech (CA, USA). Primary antibody against Flag was purchased from MBL Beijing Biotech (Beijing, China). CRC cells were transfected with 100 nM siRNA or treated with various doses of SFI003 for 24 h, 48 h, or 72 h before being subjected to MTT assay as described previously.

[6] = test system: HCT-116 cells; experiment: MTT assay in HCT-116 cells; type: cell-based, Human; settings: Homo sapiens; HCT-116 cells, 72 h
Method: as §1

Cc1c(C)c2c(c(C)c1O)CCC(C)(C(=O)O)O2 (stereo not drawn) [Trolox]
effect on SFI003-induced apoptosis and migration disability [1]: reversed | effect on SFI003-induced ROS [2]: significantly reversed

CCCCCOC(=O)Nc1nc(=O)n([C@@H]2O[C@H](C)[C@@H](O)[C@H]2O)cc1F [capecitabine, reference compound]
number of tumors that disappeared [3]: one

C/C(=N\Nc1nc(-c2ccc(O)cc2)cs1)C1=CSCN1 [compound 6]
inhibitory activity against SRSF3 [4]: satisfactory inhibitory activity

CO[C@H]1C[C@@H]2CC[C@@H](C)[C@@](O)(O2)C(=O)C(=O)N2CCCC[C@H]2C(=O)O[C@H]([C@H](C)C[C@@H]2CC[C@@H](O)[C@H](OC)C2)CC(=O)[C@H](C)/C=C(\C)[C@@H](O)[C@@H](OC)C(=O)[C@H](C)C[C@H](C)/C=C/C=C/C=C/1C [rapamycin, reference compound]
IC50 [5]: 16.8 µM | IC50 [6]: 33.2 µM
